Results taken from article PMC6125496 (Antimicrobial Agents and Chemotherapy, 2018).
≈ marks a conversion by molar mass, not a printed value. Where two headings read alike, the source gives them in different places. Non-standard residues stand in square brackets, D forms with d. Residues, ends and D or L forms follow the SMILES beside them. Dab(3S-OH) = NC[C@H](O)[C@H](N)C(=O)O; Phe(2-F) = N[C@@H](Cc1ccccc1F)C(=O)O; ΔZArg = N=C(N)NCC/C=C(\N)C(=O)O; dOrn = NCCC[C@@H](N)C(=O)O; Dab = NCC[C@H](N)C(=O)O

What was measured:
[1] = test system: Gentamicin-resistant E. coli (6); details: 6 gentamicin-resistant isolates
Excerpt: (§1) Reference strains are from the German Collection of Microorganisms and Cell Cultures (DSMZ), the American Type Culture Collection (ATCC), the National Collection of Type Cultures (NCTC), and the Medical and Molecular Microbiology, Faculty of Science and Medicine, University of Fribourg, Switzerland.

[2] = test system: Escherichia coli, colistin-resistant (25)
Excerpt: as §1

in vitro [3] = details: cryopreserved pooled hepatocytes
Description: The hepatocyte metabolic stability assays were performed by Cyprotex Discovery Ltd. (Macclesfield, UK). This assay utilizes cryopreserved pooled hepatocytes from different species (mouse, rat, dog, monkey, and human), stored in liquid nitrogen prior to use. […] The final incubation volume was 500 μl. Two control compounds were included with each species alongside an appropriate vehicle control. […] The termination plates were centrifuged at 2,500 rpm at 4°C for 30 min to precipitate the protein. Following protein precipitation, the test compound sample supernatants were diluted with analytical-grade water, whereas the control compounds were diluted with an internal standard (metoprolol) in water. The test compound samples were analyzed by liquid chromatography-tandem mass spectrometry (LC-MS/MS).

in vivo = details: female, plasma, iv
Description: Pharmacokinetic analyses were performed by Pharmacelsus (Saarbrücken, Germany). […] Blood (100 μl) was collected from three animals per time point (5, 10, 20, 30, 60, and 120 min postdose for mice and 5, 15, 30, 60, 180, and 420 min postdose for rats) in tubes containing K3-EDTA as an anticoagulant. Samples were stored on ice and centrifuged at 6,000 rpm for 10 min at 4°C. A sample volume of 50 μl was mixed with 5 μl of solvent (acetonitrile-H2O-DMSO, [5/4/1, vol/vol/vol] plus 1% formic acid). A volume of 10 μl of solvent containing the internal standard and 50 μl of precipitant (10% TCA) were added to 55 μl of sample. The mixture was vortexed and centrifuged at 6,000 × g (room temperature) for 10 min. The protein-free supernatant was analyzed by LC-MS using an Ultimate 3000RS ultrahigh-performance liquid chromatograph (U-HPLC) coupled with an Orbitrap Q Exactive mass spectrometer.
Analytes were separated on a Accurore phenyl-hexyl analytical column (2.1 by 50 mm, 2.6 μm; Thermo, Germany) using a linear gradient of mobile phase A (acetonitrile-0.2% heptafluorobutyric acid)-mobile phase B (water-0.2% heptafluorobutyric acid), starting from 5% mobile phase A to 97% in 2.2 min, and a flow rate of […]. Peaks were analyzed by mass spectrometry (ESI ionization in MRM mode) using Xcalibur 4.0 software. The products analyzed, [M + 2H]^2+ and [M + 3H]^3+, were 539.8 and 360.2 Da, respectively. PK parameters were calculated using a noncompartmental analysis model and Kinetica 5.0 software (Thermo Scientific, Waltham, MA). The mean plasma concentrations from all three mice at each time point were used in the calculation.

in vitro [4] = details: human, cryopreserved pooled hepatocytes
hERG = hERG (Homo sapiens, UniProt Q12809); experiment: in vitro
Chain of hERG (Q12809 whole entry): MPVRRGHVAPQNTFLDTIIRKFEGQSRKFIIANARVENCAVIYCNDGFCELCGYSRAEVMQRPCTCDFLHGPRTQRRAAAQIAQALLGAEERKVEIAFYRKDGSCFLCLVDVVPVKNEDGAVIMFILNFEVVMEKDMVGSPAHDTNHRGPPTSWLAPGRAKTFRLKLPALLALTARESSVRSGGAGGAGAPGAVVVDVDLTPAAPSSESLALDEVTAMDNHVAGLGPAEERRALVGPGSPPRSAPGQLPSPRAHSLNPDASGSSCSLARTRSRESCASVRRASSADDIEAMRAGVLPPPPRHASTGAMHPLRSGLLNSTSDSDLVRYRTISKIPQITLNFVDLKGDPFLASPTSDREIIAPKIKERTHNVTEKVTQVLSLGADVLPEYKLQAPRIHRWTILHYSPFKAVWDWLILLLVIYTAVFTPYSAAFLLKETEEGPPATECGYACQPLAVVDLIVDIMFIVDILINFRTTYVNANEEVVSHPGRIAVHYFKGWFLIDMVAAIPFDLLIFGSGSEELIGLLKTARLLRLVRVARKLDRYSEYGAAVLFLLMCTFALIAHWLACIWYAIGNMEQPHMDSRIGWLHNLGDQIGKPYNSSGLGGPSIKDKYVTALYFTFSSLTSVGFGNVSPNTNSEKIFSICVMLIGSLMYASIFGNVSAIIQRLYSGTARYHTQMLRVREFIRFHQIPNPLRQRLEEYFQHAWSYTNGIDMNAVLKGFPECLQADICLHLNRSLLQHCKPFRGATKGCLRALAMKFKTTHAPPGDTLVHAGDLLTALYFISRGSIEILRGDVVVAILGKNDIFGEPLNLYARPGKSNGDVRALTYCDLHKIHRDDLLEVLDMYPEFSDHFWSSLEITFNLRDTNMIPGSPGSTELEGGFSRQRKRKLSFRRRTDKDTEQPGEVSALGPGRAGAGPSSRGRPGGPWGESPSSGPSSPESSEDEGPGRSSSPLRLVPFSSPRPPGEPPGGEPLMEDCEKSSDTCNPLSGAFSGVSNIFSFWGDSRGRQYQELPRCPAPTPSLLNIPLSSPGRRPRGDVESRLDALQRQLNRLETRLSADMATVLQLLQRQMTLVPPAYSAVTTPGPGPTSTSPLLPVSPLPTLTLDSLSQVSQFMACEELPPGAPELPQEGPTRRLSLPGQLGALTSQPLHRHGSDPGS
Description: Inhibition of the human ether-a-go-go-related gene (hERG) cardiac potassium ion channel was determined by Eurofins Panlabs (Eurofins Panlabs, Inc., St. Charles, MO) in CHO-K1 (Chinese hamster ovary) cells stably transfected with human hERG cDNA using QPatch automated whole-cell patch clamp electrophysiology as described in reference [45]. […] In this method, the extracellular solution (control) is applied first and the cell is stabilized in the solution for 5 min. Then the test compound is applied from low to high concentrations sequentially on the same cell, with 5 min for each test concentration, at room temperature.

[5] = test system: Klebsiella pneumoniae ATCC BAA-2146; details: Ambler class B carbapenemase; NDM-1 + CTX-M15 + TEM-1 + CMY-6 + OXA-1 + SHV-1
Excerpt: as §1

[6] = test system: Klebsiella pneumoniae A33504; details: Ambler class A carbapenemase; KPC-2+ SHV-11 + TEM-1 + CTX-M-2 + OXA-9
Excerpt: as §1

[7] = test system: Klebsiella pneumoniae LAM; details: Ambler class B carbapenemase; NDM-4 + SHV-11 + CTX-M15
Excerpt: as §1

Escherichia coli EGB957 = details: Ambler class B carbapenemase; VIM-1 + OXA-48 + TEM-1 + CMY-4 + OXA-1
Excerpt: as §1

Escherichia coli MON = details: Ambler class B carbapenemase; NDM-5 + CTX-M15 + TEM-1
Excerpt: as §1

Enterobacter cloacae YAM = details: Ambler class D carbapenemase; OXA-48 + CTX-M15 + TEM-1 + OXA-1 + DHA-1
Excerpt: as §1

[8] = test system: Enterobacter cloacae 3047; details: Ambler class B carbapenemase; NDM-1 + CTX-M15 + TEM-1 + OXA-1
Excerpt: as §1

Enterobacter cloacae BEU = details: Ambler class D carbapenemase; OXA-48 + CTX-M15 + SHV-12 + TEM-1 + OXA-1 + DHA-1
Excerpt: as §1

In the case of N=C(N)NCC/C=C(\NC(=O)[C@H](CCCCN)NC(=O)[C@H](Cc1ccccc1F)NC(=O)[C@@H]1CCCN1C(=O)[C@@H](CCCN)NC(=O)CNC(=O)[C@H](CCN)NC(=O)[C@@H](NC(=O)[C@@H](N)CCCCN)[C@@H](O)CN)C(=O)O [NOSO-502] (H-K[Dab(3S-OH)][Dab]G[dOrn]P[Phe(2-F)]K[ΔZArg]-OH), the “MIC range” value [1] is reported as 4 µg/mL (≈ 3.71 µM), the MIC range ([2]; Unknown mechanism (2 isolates)) is reported as 1 to 2 µg/mL and the MIC range ([2]; mcr-1 (21 isolates)) is reported as 1 to 4 µg/mL. For the same compound, the MIC range ([2]; mcr-2 (1 isolate)) was 1 µg/mL (≈ 0.927 µM), the MIC range ([2]; mcr-3 (1 isolate)) was 1 µg/mL (≈ 0.927 µM) and the half-life at 1 μM (in vitro [3]; dog) was 8.05 h. For the same compound, the half-life at 1 μM (in vitro [3]; monkey) was 11.6 h, the half-life at 1 μM (in vitro [3]; mouse) was 3.2 h and the half-life at 1 μM (in vitro [3]; rat) was 3.23 h. For the same compound, the AUC(0-t) (in vivo; CD-1, mouse, 30 mg/kg) was 8880 ng·h/mL, the Cmax (in vivo; CD-1, mouse, 30 mg/kg) was 23500 ng/mL and the Vd (in vivo; CD-1, mouse, 30 mg/kg) was 0.66 L/kg. The clearance (in vivo; CD-1, mouse, 30 mg/kg) was 18.8 mL/min/kg, the half-life (in vivo; CD-1, mouse, 30 mg/kg) was 0.417 h and the AUC(0-t) (in vivo; Sprague-Dawley, rat, 15 mg/kg) was 7990 ng·h/mL. The Cmax (in vivo; Sprague-Dawley, rat, 15 mg/kg) was 40700 ng/mL, the Vd (in vivo; Sprague-Dawley, rat, 15 mg/kg) was 0.94 L/kg and the clearance (in vivo; Sprague-Dawley, rat, 15 mg/kg) was 32 mL/min/kg. For the same compound, the half-life (in vivo; Sprague-Dawley, rat, 15 mg/kg) was 1.5 h, the half-life at 1 μM (in vitro [4]) was 5.48 h and the inhibition at 5 min, 256 µM (hERG) was 2.6%. For the same compound, the inhibition at 5 min, 512 µM (hERG) was 1.9%.

polymyxin B [PMB] gave an MIC [5] of 1 µg/mL, an MIC [6] of 0.5 µg/mL and an MIC [7] of 0.5 µg/mL. For the same compound, the MIC (Escherichia coli EGB957) was 0.5 µg/mL, the MIC (Escherichia coli MON) was 0.5 µg/mL and the MIC (Enterobacter cloacae YAM) was 1 µg/mL. The MIC [8] was 0.5 µg/mL and the MIC (Enterobacter cloacae BEU) was 16 µg/mL.
